From ChEMBL document CHEMBL1909046, “DrugMatrix in vitro pharmacology data” come the findings set out here.

Series [1] in a line: DRUGMATRIX: Calcium Channel Type L, Benzothiazepine radioligand binding (ligand: [3H] Diltiazem). It is filed as cell membranes, Rattus norvegicus, Wistar, Brain, Membrane. Particulars: Not Active = under 50% inhibition at 10 µM.
The next series addresses Carbonic anhydrase 2 (Homo sapiens, UniProt P00918). Kind of series: DRUGMATRIX: Carbonic Anhydrase II enzyme inhibition (substrate: 4-Nitrophenyl acetate (4-NPA)). It is filed as tissue-based, Erythrocyte. Conditions: erythrocyte; Not Active = under 50% inhibition at 10 µM.
Series [2] in a line: DRUGMATRIX: Glutamate, AMPA radioligand binding (ligand: [3H] AMPA). Particulars: Not Active = under 50% inhibition at 10 µM. It is filed as cell membranes, Rattus norvegicus, Wistar, Cerebral cortex, Membrane.
Series [3] is described as follows: DRUGMATRIX: Leukotriene, BLT (LTB4) radioligand binding (ligand: [3H]LTB4). Conditions: u-937; Not Active = under 50% inhibition at 10 µM. It is filed as cell membranes, Membrane.
Series [4] concerns the target T1, Cysteinyl leukotriene receptor 1 (Homo sapiens, UniProt Q9Y271). Note: in other assays of this panel Not Active means under 50% inhibition at 10 µM.
T1 sequence (Q9Y271 whole entry): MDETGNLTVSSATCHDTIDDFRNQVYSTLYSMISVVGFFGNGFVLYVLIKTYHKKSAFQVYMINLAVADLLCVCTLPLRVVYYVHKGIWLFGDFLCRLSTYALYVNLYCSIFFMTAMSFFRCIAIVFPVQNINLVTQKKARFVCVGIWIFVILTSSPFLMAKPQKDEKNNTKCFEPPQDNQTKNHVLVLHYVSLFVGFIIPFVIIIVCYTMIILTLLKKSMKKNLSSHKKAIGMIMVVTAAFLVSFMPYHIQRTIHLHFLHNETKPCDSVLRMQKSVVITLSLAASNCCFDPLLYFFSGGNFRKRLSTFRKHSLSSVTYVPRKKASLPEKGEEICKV
It is filed as cell membranes, CHO-K1, Membrane. Conditions: cho-k1.

Series [5] concerns the target T2, Amine oxidase [flavin-containing] A (Homo sapiens, UniProt P21397).
T2 sequence (P21397 whole entry): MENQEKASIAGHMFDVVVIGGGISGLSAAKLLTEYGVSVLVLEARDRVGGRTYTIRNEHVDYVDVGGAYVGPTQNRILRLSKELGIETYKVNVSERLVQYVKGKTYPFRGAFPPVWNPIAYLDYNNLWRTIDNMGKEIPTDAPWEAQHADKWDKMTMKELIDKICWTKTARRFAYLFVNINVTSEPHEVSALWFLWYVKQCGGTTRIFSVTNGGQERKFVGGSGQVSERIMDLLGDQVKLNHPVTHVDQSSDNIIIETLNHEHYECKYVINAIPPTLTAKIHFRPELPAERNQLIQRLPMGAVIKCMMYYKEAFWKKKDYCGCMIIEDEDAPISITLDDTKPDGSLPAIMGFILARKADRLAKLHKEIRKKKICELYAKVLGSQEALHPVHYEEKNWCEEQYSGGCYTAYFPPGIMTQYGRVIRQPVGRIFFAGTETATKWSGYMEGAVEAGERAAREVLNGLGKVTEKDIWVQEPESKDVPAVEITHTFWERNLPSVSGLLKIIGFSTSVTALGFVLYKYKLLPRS
Put plainly: DRUGMATRIX: Monoamine Oxidase MAO-A enzyme inhibition (substrate: Kynuramine). On the set-up: species or system BTI-TN-5B1-4. Conditions: bti-tn-5b1-4; Not Active = under 50% inhibition at 10 µM.

In series [6] the target is T3, Neuropeptide Y receptor type 1 (Homo sapiens, UniProt P25929). Note: in other assays of this panel Not Active means under 50% inhibition at 10 µM.
T3 sequence (P25929 whole entry): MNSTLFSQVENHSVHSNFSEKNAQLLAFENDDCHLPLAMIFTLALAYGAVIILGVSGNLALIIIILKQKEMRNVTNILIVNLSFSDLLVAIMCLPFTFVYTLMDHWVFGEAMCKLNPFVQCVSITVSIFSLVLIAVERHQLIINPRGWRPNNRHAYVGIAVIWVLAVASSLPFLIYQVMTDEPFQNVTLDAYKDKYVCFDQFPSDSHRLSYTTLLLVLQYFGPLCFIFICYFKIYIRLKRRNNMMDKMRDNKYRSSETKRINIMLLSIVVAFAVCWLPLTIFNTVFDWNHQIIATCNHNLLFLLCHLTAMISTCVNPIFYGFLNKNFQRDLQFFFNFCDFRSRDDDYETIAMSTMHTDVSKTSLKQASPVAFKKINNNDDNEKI
It is filed as cell membranes, Membrane. Particulars: sk-n-mc.

Series [7] addresses cGMP-specific 3',5'-cyclic phosphodiesterase (Homo sapiens, UniProt O76074). Put plainly: DRUGMATRIX: Phosphodiesterase PDE5 enzyme inhibition (substrate: [3H]cGMP + cGMP). Particulars: platelet; Not Active = under 50% inhibition at 10 µM. It is filed as tissue-based, Platelet.
Series [8] deals with Protein kinase C alpha type (Homo sapiens, UniProt P17252). It is filed as cell-based. Particulars: sf9.
Another series has as its target T4, Cytochrome P450 1A2 (Homo sapiens, UniProt P05177). Note: in other assays of this panel Not Active means under 50% inhibition at 10 µM.
T4 sequence (P05177 whole entry): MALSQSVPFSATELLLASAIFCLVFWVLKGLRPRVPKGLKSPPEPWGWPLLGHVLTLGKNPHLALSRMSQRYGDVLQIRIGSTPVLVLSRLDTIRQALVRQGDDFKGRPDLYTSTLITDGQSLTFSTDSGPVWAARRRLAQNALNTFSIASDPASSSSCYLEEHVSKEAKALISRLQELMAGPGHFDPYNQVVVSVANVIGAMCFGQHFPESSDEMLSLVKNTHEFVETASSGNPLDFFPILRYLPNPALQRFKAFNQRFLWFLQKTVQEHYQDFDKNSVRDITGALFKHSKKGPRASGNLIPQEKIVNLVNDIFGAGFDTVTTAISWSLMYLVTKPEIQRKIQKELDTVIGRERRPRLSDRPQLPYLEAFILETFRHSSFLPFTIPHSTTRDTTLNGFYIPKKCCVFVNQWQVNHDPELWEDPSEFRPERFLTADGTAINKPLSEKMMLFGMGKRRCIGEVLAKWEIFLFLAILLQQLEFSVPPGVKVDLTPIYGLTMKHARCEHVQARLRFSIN
Conditions: bti-tn-5b1-4.

The next series addresses Cytochrome P450 2D6 (Homo sapiens, UniProt P10635). Conditions: bti-tn-5b1-4.
The target of a further series is Estrogen receptor beta (Homo sapiens, UniProt Q92731). Conditions: sf9. Note: in other assays of this panel Not Active means under 50% inhibition at 10 µM.
Chain of Estrogen receptor beta (Q92731 whole entry): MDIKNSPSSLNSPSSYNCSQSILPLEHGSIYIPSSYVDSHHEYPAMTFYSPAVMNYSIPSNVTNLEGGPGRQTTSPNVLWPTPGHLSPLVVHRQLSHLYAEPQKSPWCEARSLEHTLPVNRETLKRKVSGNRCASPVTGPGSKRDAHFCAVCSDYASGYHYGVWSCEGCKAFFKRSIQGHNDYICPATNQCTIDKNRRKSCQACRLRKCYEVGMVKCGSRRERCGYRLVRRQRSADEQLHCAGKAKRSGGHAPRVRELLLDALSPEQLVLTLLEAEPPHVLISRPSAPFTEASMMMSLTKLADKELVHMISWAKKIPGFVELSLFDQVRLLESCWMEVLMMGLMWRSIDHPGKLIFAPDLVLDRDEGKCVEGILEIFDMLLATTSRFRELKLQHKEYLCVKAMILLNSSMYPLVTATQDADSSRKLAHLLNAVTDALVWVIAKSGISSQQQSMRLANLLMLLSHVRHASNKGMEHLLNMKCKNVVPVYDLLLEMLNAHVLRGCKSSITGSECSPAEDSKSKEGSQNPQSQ

Chain of Cytochrome P450 2D6 (P10635 whole entry): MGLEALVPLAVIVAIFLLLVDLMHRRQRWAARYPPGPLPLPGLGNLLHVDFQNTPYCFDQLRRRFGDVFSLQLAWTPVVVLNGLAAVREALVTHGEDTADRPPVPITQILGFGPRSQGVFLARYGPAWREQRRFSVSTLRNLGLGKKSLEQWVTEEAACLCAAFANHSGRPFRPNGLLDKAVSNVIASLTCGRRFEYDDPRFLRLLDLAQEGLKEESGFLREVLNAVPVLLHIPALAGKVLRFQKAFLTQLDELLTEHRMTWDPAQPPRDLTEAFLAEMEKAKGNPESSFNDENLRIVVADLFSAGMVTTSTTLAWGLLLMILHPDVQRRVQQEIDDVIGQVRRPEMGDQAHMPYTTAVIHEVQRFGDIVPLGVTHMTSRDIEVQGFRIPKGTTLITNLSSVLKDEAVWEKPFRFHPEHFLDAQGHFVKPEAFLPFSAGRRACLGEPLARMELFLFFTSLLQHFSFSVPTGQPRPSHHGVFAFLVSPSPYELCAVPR

Turning to `COCc1c(C(C)C)nc(C(C)C)c(/C=C/[C@@H](O)C[C@@H](O)CC(=O)O)c1-c1ccc(F)cc1` [CERIVASTATIN], the IC50 result (in series [1]; on Carbonic anhydrase 2; in [2]; in [3]; in series [4]; in [5]) was “Not Active” throughout. For the same molecule, the IC50 entry (in [6]; in series [7]; in series [8]; on Cytochrome P450 1A2; on Cytochrome P450 2D6; at Estrogen receptor beta) was “Not Active” each time. In addition, the Ki entry (in series [1]; in series [2]; in series [3]; on Cytochrome P450 1A2; at Cytochrome P450 2D6) was “Not Active” each time.
`CC(=O)O[C@]1(C(C)=O)CC[C@H]2[C@@H]3C=C(Cl)C4=CC(=O)CC[C@]4(C)[C@H]3CC[C@@]21C` [CHLORMADINONE ACETATE]: the concentration for half-maximal inhibition (IC50) entry (in series [1]; at Carbonic anhydrase 2; in series [2]; in series [3]; in series [4]; in [5]) was “Not Active” throughout. The IC50 result (in [6]; in series [7]; in [8]; against Cytochrome P450 1A2; against Cytochrome P450 2D6; on Estrogen receptor beta) was “Not Active” throughout. The inhibition constant (Ki) entry (in [1]; in [2]; in series [3]; at Cytochrome P450 1A2; at Cytochrome P450 2D6) was “Not Active” each time.
Take `O=C1CCc2cc(OCCCCc3nnnn3C3CCCCC3)ccc2N1` [CILOSTAZOL]: the IC50 result (in series [1]; at Carbonic anhydrase 2; in [2]; in series [3]; in [4]; in [5]) was “Not Active” each time. Moreover, the IC50 result (in [6]; in series [7]; in [8]; against Cytochrome P450 1A2; on Cytochrome P450 2D6; against Estrogen receptor beta) was “Not Active” throughout. The Ki result (in series [1]; in series [2]; in series [3]; on Cytochrome P450 1A2; on Cytochrome P450 2D6) was “Not Active” in each case.
In the case of `CN(C)CCCC1(c2ccc(F)cc2)OCc2cc(C#N)ccc21` (centres undefined) [CITALOPRAM], the IC50 in series [1] (read-out: IC50) was 1790 nM; on Carbonic anhydrase 2 it was “Not Active”; in series [2] it was “Not Active”; in [3], “Not Active”; in [4], “Not Active”; in series [5], “Not Active”. The half-inhibitory concentration (IC50) entry (in [6]; in series [7]; in [8]; against Cytochrome P450 1A2; at Cytochrome P450 2D6; on Estrogen receptor beta) was “Not Active” each time. The Ki in series [1] (read-out: Ki) is 1590 nM; in series [2], “Not Active”; in [3] it was “Not Active”; on Cytochrome P450 1A2 it was “Not Active”; on Cytochrome P450 2D6 it was “Not Active”.
For the molecule `COC(=O)[C@H](c1ccccc1Cl)N1CCc2sccc2C1` [CLOPIDOGREL], the half-inhibitory concentration (IC50) result (in series [1]; against Carbonic anhydrase 2; in [2]; in series [3]; in series [4]; in series [5]) was “Not Active” each time. The IC50 entry (in [6]; in series [7]; in series [8]; at Cytochrome P450 1A2; against Cytochrome P450 2D6; at Estrogen receptor beta) was “Not Active” throughout. For the same molecule, the Ki entry (in series [1]; in series [2]; in [3]; at Cytochrome P450 1A2; at Cytochrome P450 2D6) was “Not Active” each time.
As for `C[C@]12CCC(=O)C=C1CC[C@@H]1[C@@H]2C(=O)C[C@@]2(C)[C@H]1CC[C@]2(O)C(=O)CO` [CORTISONE], the IC50 result (in [1]; at Carbonic anhydrase 2; in series [2]; in series [3]; in [4]; in series [5]) was “Not Active” each time. In addition, the 50% inhibitory concentration (IC50) entry (in series [6]; in series [7]; in series [8]; at Cytochrome P450 1A2; against Cytochrome P450 2D6; on Estrogen receptor beta) was “Not Active” in each case. In addition, the Ki entry (in [1]; in series [2]; in [3]; at Cytochrome P450 1A2; on Cytochrome P450 2D6) was “Not Active” in each case.
As for `Cc1ccccc1N1CCN(CCc2nnc3n2CCCC3)CC1` [DAPIPRAZOLE], the IC50 result (in [1]; at Carbonic anhydrase 2; in [2]; in series [3]; in series [4]; in series [5]) was “Not Active” throughout. Besides, the IC50 entry (in series [6]; in series [7]; in series [8]; against Cytochrome P450 1A2; on Cytochrome P450 2D6; against Estrogen receptor beta) was “Not Active” throughout. The Ki entry (in series [1]; in series [2]; in series [3]; on Cytochrome P450 1A2; at Cytochrome P450 2D6) was “Not Active” throughout.
